Tests used:
B. subtilis 168 [1] = assay: fitness (endpoint OD595 vs no drug) (fraction); higher = more growth
Procedure, shortened: (§1)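 In 384-well plates at 37 °C, cultures began at OD595 0.01 in 30 µl, with 55 µl used for S. pneumoniae. OD595 readings every 30 min for 14 h were corrected by the first reading. Fitness divides the stationary-phase transition optical density by the robust mean of no-drug control wells. The result is capped at 1.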

S. pneumoniae D39V [2] = assay: as above
Procedure, shortened: as §1

B. subtilis 168 [3] = assay: Bliss interaction score (quartile over a dose matrix) (fitness difference); higher = more antagonism (negative = synergy)
Procedure, shortened: (§2)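 At entry into stationary phase, OD595 was recorded and divided by the robust mean of the no-drug wells on that plate, with any value above 1 set to 1. This gives the fitness measure used throughout. Single-drug fitness was inferred from combination data, and the Bliss score, observed minus product-expected fitness, is shown as quartiles across technical, biological and donor/recipient replicates.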

S. aureus Newman = assay: as above
Procedure, shortened: as §2

S. aureus DSM 20231 = assay: as above
Procedure, shortened: as §2

S. pneumoniae D39V [4] = assay: as above
Procedure, shortened: as §2
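Wherever Bliss interaction score (quartile over a dose matrix) is given: first quartile when negative (synergy) and third quartile when positive (antagonism).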

O=C(O)c1cn(C2CC2)c2cc(N3CCNCC3)c(F)cc2c1=O [Ciprofloxacin] + CCC[C@@H]1C[C@@H](C(=O)N[C@@H]([C@H]2O[C@H](SC)[C@H](O)[C@@H](O)[C@H]2O)[C@@H](C)O)N(C)C1 [Lincomycin]
fitness
Details	partner 0.1 µg/mL	partner 0.2 µg/mL	partner 0.215 µg/mL	partner 0.4 µg/mL	partner 0.43 µg/mL	partner 0.8 µg/mL	partner 0.86 µg/mL
B. subtilis 168 [1], first compound 0.0098 µg/mL	0.876	0.814	–	0.9	–	–	–
B. subtilis 168 [1], first compound 0.0195 µg/mL	0.713	0.751	–	0.763	–	–	–
S. pneumoniae D39V [2], first compound 0.125 µg/mL	–	0.564	0.801	0.323	0.722	0.0204	0.469
S. pneumoniae D39V [2], first compound 0.25 µg/mL	–	–	0.789	–	0.701	–	0.517
S. pneumoniae D39V [2], first compound 0.5 µg/mL	–	0.46	0.674	0.292	0.618	0.0616	0.318

fitness, one replicate
Details	partner 0.2 µg/mL	partner 0.4 µg/mL	partner 0.8 µg/mL	partner 1.6 µg/mL
B. subtilis 168 [1], first compound 0.0098 µg/mL	–	–	0.943	0.926
B. subtilis 168 [1], first compound 0.0195 µg/mL	–	–	0.745	0.767
B. subtilis 168 [1], first compound 0.039 µg/mL	–	–	0.486	0.674
S. pneumoniae D39V [2], first compound 0.25 µg/mL	0.404	0.256	0	–

Details	Bliss interaction score
B. subtilis 168 [3]	0.169
S. aureus DSM 20231	0.208
S. aureus Newman	0.119
S. pneumoniae D39V [4]	0.0743

C[C@H]1c2cccc(O)c2C(=O)C2=C(O)[C@]3(O)C(=O)C(C(N)=O)=C(O)[C@@H](N(C)C)[C@@H]3[C@@H](O)[C@@H]21 [Doxycycline] + CN[C@@H]1[C@H](O)[C@H](NC)[C@H]2O[C@@]3(O)C(=O)C[C@@H](C)O[C@H]3O[C@@H]2[C@H]1O [Spectinomycin]
fitness
Details	partner 2 µg/mL	partner 4 µg/mL	partner 8 µg/mL	partner 16 µg/mL
B. subtilis 168 [1], first compound 0.02 µg/mL	0.909	0.881	0.835	–
B. subtilis 168 [1], first compound 0.04 µg/mL	0.824	0.828	0.712	–
B. subtilis 168 [1], first compound 0.08 µg/mL	0.546	–	0.402	–
S. pneumoniae D39V [2], first compound 0.0155 µg/mL	–	0.91	0.869	0.805
S. pneumoniae D39V [2], first compound 0.031 µg/mL	–	0.879	0.822	–
S. pneumoniae D39V [2], first compound 0.062 µg/mL	–	0.783	0.758	–

fitness, S. pneumoniae D39V [2], one replicate
Details	first compound 0.003875 µg/mL	first compound 0.00775 µg/mL	first compound 0.031 µg/mL	first compound 0.062 µg/mL
partner 4 µg/mL	0.971	0.908	–	–
partner 8 µg/mL	0.949	0.925	–	–
partner 16 µg/mL	0.804	0.834	0.768	0.673

Details	Bliss interaction score
B. subtilis 168 [3]	-0.0339
S. aureus DSM 20231	-0.0389
S. aureus Newman	-0.0405
S. pneumoniae D39V [4]	-0.0375

C[C@H]1c2cccc(O)c2C(=O)C2=C(O)[C@]3(O)C(=O)C(C(N)=O)=C(O)[C@@H](N(C)C)[C@@H]3[C@@H](O)[C@@H]21 [Doxycycline] + COc1c(N2C[C@@H]3CCCN[C@@H]3C2)c(F)cc2c(=O)c(C(=O)O)cn(C3CC3)c12 [Moxifloxacin]
Details	fitness
B. subtilis 168 [1], first compound 0.02 µg/mL, partner 0.0312 µg/mL	0.0633
B. subtilis 168 [1], first compound 0.02 µg/mL, partner 0.0625 µg/mL	0.0369
B. subtilis 168 [1], first compound 0.02 µg/mL, partner 0.125 µg/mL	0.0526
B. subtilis 168 [1], first compound 0.02 µg/mL, partner 2 µg/mL	0.0252
B. subtilis 168 [1], first compound 0.02 µg/mL, partner 4 µg/mL	0.0301
B. subtilis 168 [1], first compound 0.02 µg/mL, partner 8 µg/mL	0.061
B. subtilis 168 [1], first compound 0.04 µg/mL, partner 0.0312 µg/mL	0.0435
B. subtilis 168 [1], first compound 0.04 µg/mL, partner 0.0625 µg/mL	0.0347
B. subtilis 168 [1], first compound 0.04 µg/mL, partner 0.125 µg/mL	0.0489
B. subtilis 168 [1], first compound 0.04 µg/mL, partner 2 µg/mL	0.0204
B. subtilis 168 [1], first compound 0.04 µg/mL, partner 4 µg/mL	0.013
B. subtilis 168 [1], first compound 0.04 µg/mL, partner 8 µg/mL	0.0253
B. subtilis 168 [1], first compound 0.08 µg/mL, partner 0.0625 µg/mL	0.03
B. subtilis 168 [1], first compound 0.08 µg/mL, partner 0.125 µg/mL	0.0215
B. subtilis 168 [1], first compound 0.08 µg/mL, partner 2 µg/mL	0.0234
B. subtilis 168 [1], first compound 0.08 µg/mL, partner 4 µg/mL	0.0247
B. subtilis 168 [1], first compound 0.08 µg/mL, partner 8 µg/mL	0.0278
S. pneumoniae D39V [2], first compound 0.0155 µg/mL, partner 0.0037 µg/mL	0.791
S. pneumoniae D39V [2], first compound 0.0155 µg/mL, partner 0.005 µg/mL	0.918
S. pneumoniae D39V [2], first compound 0.0155 µg/mL, partner 0.0075 µg/mL	0.838
S. pneumoniae D39V [2], first compound 0.0155 µg/mL, partner 0.01 µg/mL	0.919
S. pneumoniae D39V [2], first compound 0.0155 µg/mL, partner 0.015 µg/mL	0.857
S. pneumoniae D39V [2], first compound 0.0155 µg/mL, partner 0.02 µg/mL	0.834
S. pneumoniae D39V [2], first compound 0.031 µg/mL, partner 0.005 µg/mL	0.886
S. pneumoniae D39V [2], first compound 0.031 µg/mL, partner 0.01 µg/mL	0.896
S. pneumoniae D39V [2], first compound 0.031 µg/mL, partner 0.02 µg/mL	0.783
S. pneumoniae D39V [2], first compound 0.062 µg/mL, partner 0.005 µg/mL	0.807
S. pneumoniae D39V [2], first compound 0.062 µg/mL, partner 0.01 µg/mL	0.856
S. pneumoniae D39V [2], first compound 0.062 µg/mL, partner 0.02 µg/mL	0.807

fitness, S. pneumoniae D39V [2], one replicate
Details	first compound 0.003875 µg/mL	first compound 0.00775 µg/mL	first compound 0.031 µg/mL	first compound 0.062 µg/mL
partner 0.0037 µg/mL	0.939	0.881	0.692	0.352
partner 0.0075 µg/mL	0.952	0.894	0.806	0.679
partner 0.015 µg/mL	0.909	0.874	0.721	0.59

Details	Bliss interaction score
B. subtilis 168 [3]	0.0361
S. aureus DSM 20231	0.0965
S. aureus Newman	0.036
S. pneumoniae D39V [4]	-0.0559

C[C@H]1c2cccc(O)c2C(=O)C2=C(O)[C@]3(O)C(=O)C(C(N)=O)=C(O)[C@@H](N(C)C)[C@@H]3[C@@H](O)[C@@H]21 [Doxycycline] + CC(C1CCC(C(O1)OC2C(CC(C(C2O)OC3C(C(C(CO3)(C)O)NC)O)N)N)N)NC [Gentamicin]
main component drawn
Details	fitness
B. subtilis 168 [1], first compound 0.02 µg/mL, partner 0.0625 µg/mL	0.896
B. subtilis 168 [1], first compound 0.04 µg/mL, partner 0.0625 µg/mL	0.747
B. subtilis 168 [1], first compound 0.08 µg/mL, partner 0.25 µg/mL	0.0845
S. pneumoniae D39V [2], first compound 0.0155 µg/mL, partner 2 µg/mL	0.885
S. pneumoniae D39V [2], first compound 0.0155 µg/mL, partner 4 µg/mL	0.857
S. pneumoniae D39V [2], first compound 0.0155 µg/mL, partner 8 µg/mL	0.824

fitness, S. pneumoniae D39V [2], one replicate, main component drawn
Details	partner 2 µg/mL	partner 4 µg/mL	partner 8 µg/mL
first compound 0.003875 µg/mL	≥ 1	≥ 1	≥ 1
first compound 0.00775 µg/mL	≥ 1	0.995	0.967

main component drawn
Details	Bliss interaction score
B. subtilis 168 [3]	0.213
S. aureus DSM 20231	0.067
S. aureus Newman	0.0873
S. pneumoniae D39V [4]	-0.208
